Data set [1] can be described thus: Tmax in fasted BALB/c mouse at 20 mg/kg, iv administered upto 600 mins by HPLC-MS/MS analysis. The format is ADME, organism-based. The conditions noted are these: in vivo.
The nature of data set [2]: Tmax in fasted BALB/c mouse at 20 mg/kg, po administered upto 600 mins by HPLC-MS/MS analysis. The note with it: in vivo. The format is ADME, organism-based.
A short description of data set [3]: Cmax in fasted BALB/c mouse at 20 mg/kg, iv administered upto 600 mins by HPLC-MS/MS analysis. More on the design: time < 600 min, dose 20 mg/kg, route iv. The note with it: in vivo. The format is ADME, organism-based.
Data set [4] can be described thus: Cmax in fasted BALB/c mouse at 20 mg/kg, po administered upto 600 mins by HPLC-MS/MS analysis. More on the design: time < 600 min, dose 20 mg/kg, route po. The note with it: in vivo. Type of data set: ADME, organism-based.
Data set [5] in a line: AUC (0 to t) in fasted BALB/c mouse at 20 mg/kg, iv administered upto 600 mins by HPLC-MS/MS analysis. The format is ADME, organism-based. More on the design: dose 20 mg/kg, time < 600 min, route iv. The note with it: in vivo.
Data set [6] is described as follows: AUC (0 to t) in fasted BALB/c mouse at 20 mg/kg, po administered upto 600 mins by HPLC-MS/MS analysis. Type of data set: ADME, organism-based. On the set-up: dose 20 mg/kg, time < 600 min, route po. The note with it: in vivo.
Data set [7] in a line: AUC (0 to infinity) in fasted BALB/c mouse at 20 mg/kg, iv administered upto 600 mins by HPLC-MS/MS analysis. Type of data set: ADME, organism-based. The conditions noted are these: in vivo. On the set-up: dose 20 mg/kg, time < 600 min, route iv.
Data set [8] is described as follows: AUC (0 to infinity) in fasted BALB/c mouse at 20 mg/kg, po administered upto 600 mins by HPLC-MS/MS analysis. Type of data set: ADME, organism-based. On the set-up: dose 20 mg/kg, time < 600 min, route po. The conditions noted are these: in vivo.
Data set [9] can be described thus: Half life in fasted BALB/c mouse at 20 mg/kg, iv administered upto 600 mins by HPLC-MS/MS analysis. Type of data set: ADME, organism-based. The conditions noted are these: in vivo.
Data set [10] is described as follows: Half life in fasted BALB/c mouse at 20 mg/kg, po administered upto 600 mins by HPLC-MS/MS analysis. The format is ADME, organism-based. The conditions noted are these: in vivo.
The nature of data set [11]: Elimination rate constant in fasted BALB/c mouse at 20 mg/kg, iv administered upto 600 mins by HPLC-MS/MS analysis. Type of data set: ADME, organism-based. The note with it: in vivo.
Data set [12] is described as follows: Elimination rate constant in fasted BALB/c mouse at 20 mg/kg, po administered upto 600 mins by HPLC-MS/MS analysis. Type of data set: ADME, organism-based. The conditions noted are these: in vivo.
Data set [13] is described as follows: Volume of distribution in fasted BALB/c mouse at 20 mg/kg, iv administered upto 600 mins by HPLC-MS/MS analysis. Type of data set: ADME, organism-based. The conditions noted are these: in vivo.
Data set [14] can be described thus: Clearance in fasted BALB/c mouse at 20 mg/kg, iv administered upto 600 mins by HPLC-MS/MS analysis. The format is ADME, organism-based. The conditions noted are these: in vivo.
Data set [15] in a line: Bioavailability in fasted BALB/c mouse at 20 mg/kg, iv administered upto 600 mins by HPLC-MS/MS analysis. Type of data set: ADME, organism-based. The note with it: in vivo.
The target of data set [16] is T1, Histone-lysine N-methyltransferase, H3 lysine-79 specific (Homo sapiens, UniProt Q8TEK3). The data set can be described thus: Inhibition of human DOT1L by hotspot PMT activity assay.
Target sequence in this assay (Q8TEK3 whole entry): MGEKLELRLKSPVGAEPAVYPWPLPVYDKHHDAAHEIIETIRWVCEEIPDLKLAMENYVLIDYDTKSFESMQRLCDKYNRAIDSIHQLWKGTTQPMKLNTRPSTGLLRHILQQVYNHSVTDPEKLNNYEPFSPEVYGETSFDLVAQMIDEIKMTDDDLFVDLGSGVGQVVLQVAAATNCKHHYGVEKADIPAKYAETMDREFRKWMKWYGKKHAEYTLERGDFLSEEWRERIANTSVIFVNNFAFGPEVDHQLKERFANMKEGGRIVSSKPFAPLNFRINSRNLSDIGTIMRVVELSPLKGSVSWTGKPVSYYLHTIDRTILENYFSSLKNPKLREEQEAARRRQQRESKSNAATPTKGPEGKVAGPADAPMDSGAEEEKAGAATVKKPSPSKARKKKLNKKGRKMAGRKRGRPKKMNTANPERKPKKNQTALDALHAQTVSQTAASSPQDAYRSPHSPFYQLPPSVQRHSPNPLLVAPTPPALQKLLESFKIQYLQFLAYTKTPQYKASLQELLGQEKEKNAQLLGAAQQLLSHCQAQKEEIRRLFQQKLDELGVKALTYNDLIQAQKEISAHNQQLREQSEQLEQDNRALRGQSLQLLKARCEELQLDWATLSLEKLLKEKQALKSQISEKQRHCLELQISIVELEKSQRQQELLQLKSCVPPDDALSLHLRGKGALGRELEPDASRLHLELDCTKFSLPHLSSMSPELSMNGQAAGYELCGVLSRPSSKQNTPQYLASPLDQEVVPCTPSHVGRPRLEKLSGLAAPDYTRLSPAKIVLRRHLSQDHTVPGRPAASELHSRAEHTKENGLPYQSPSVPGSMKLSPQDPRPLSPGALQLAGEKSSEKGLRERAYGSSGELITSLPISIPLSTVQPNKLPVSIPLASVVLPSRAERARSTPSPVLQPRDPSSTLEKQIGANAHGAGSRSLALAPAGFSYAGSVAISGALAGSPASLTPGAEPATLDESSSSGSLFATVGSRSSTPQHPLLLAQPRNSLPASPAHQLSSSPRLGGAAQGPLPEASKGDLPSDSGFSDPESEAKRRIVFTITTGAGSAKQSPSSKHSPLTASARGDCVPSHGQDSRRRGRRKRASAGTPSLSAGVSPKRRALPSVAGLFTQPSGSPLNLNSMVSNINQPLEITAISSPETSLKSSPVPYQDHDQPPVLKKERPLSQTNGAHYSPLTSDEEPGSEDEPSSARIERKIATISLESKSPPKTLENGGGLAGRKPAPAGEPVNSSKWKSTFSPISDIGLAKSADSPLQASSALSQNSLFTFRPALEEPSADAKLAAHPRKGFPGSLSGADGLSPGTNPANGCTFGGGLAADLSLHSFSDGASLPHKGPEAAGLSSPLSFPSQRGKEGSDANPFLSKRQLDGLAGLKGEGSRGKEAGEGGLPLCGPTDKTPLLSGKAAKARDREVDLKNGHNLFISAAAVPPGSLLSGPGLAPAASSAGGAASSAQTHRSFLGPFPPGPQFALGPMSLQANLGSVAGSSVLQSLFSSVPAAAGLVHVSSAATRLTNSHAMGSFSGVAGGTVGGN
Data set [17] concerns the target T1, Histone-lysine N-methyltransferase, H3 lysine-79 specific. Briefly: Binding affinity to human DOT1L assessed as binding free energy difference.
Target sequence in this assay (Q8TEK3 whole entry, looked up): as the sequence (Q8TEK3 whole entry) above

With `CC(C)NC[C@@H]1C[C@H](c2ccc3c(N)ncnn23)[C@@H](O)[C@H]1O`, the Tmax in data set [1] is 5 min; in [2], 120 min. Further, the highest concentration (Cmax) in data set [3] stood at 18400 ng/mL; in data set [4], 645 ng/mL. In addition, the figures for the AUC(0-t) at 10 h in data set [5] and in data set [6] were 7170 ng·h/mL and 830 ng·h/mL, respectively. Moreover, the AUC(0-inf) in data set [7] is 7250 ng·h/mL; in [8] it was 845 ng·h/mL. Besides, the results for the half-life in [9] and in data set [10] were 66.7 min and 25.3 min, respectively. Further, the k el at 10 h is 0.000173 s⁻¹ in data set [11] and 0.000457 s⁻¹ in [12]. In addition, in [13], the volume of distribution (Vd) is 4.43 L/kg. The molecule also showed a clearance in data set [14] of 46 mL/min/kg. Further, the bioavailability in data set [15] amounted to 12%.
In turn, `CC(C)N(CCCNC(=O)NC12CC3CC(CC(C3)C1)C2)C[C@H]1C[C@@H](c2ccc3c(N)ncnn23)[C@H](O)[C@@H]1O` gave a 50% inhibitory concentration (IC50) in data set [16] greater than 10000 nM.
Turning to `CC(C)N(CCCNC(=O)Nc1ccccc1)C[C@H]1C[C@@H](c2ccc3c(N)ncnn23)[C@H](O)[C@@H]1O`, in [17], the deltaG was -0.717 kcal/mol.
Consider `Nc1ncnn2c([C@@H]3C[C@H](CO)[C@@H](O)[C@H]3O)ccc12`, for which the IC50 in data set [16] was greater than 10000 nM.
Regarding `CC(C)N(CCCNC(=O)Nc1ccc(C(C)(C)C)cc1)C[C@H]1C[C@@H](c2ccc3c(N)ncnn23)[C@H](O)[C@@H]1O`, in data set [16], the IC50 came to 292 nM.
For the molecule `CN(CCCNC(=O)Nc1ccccc1)C[C@H]1C[C@@H](c2cnn3c(N)ccnc23)[C@H](O)[C@@H]1O`, the deltaG in [17] amounted to 2.63 kcal/mol.
In data set [16], `CN(CCCNC(=O)Nc1ccc(C(C)(C)C)cc1)C[C@H]1C[C@@H](c2ccc3c(N)ncnn23)[C@H](O)[C@@H]1O` (stereo in doubt; (+)-25) [listing 1 of 2 here] had an IC50 of 7410 nM.
Regarding `CN(CCCNC(=O)Nc1ccc(C(C)(C)C)cc1)C[C@H]1C[C@@H](c2ccc3c(N)ncnn23)[C@H](O)[C@@H]1O` (stereo in doubt; (+)-25) [listing 2 of 2 here], the deltaG in data set [17] was -0.239 kcal/mol.
In data set [16], `CN(CCCNC(=O)Nc1ccc(C(C)(C)C)cc1)C[C@H]1C[C@@](O)(c2ccc3c(N)ncnn23)[C@H](O)[C@@H]1O` registered a half-inhibitory concentration (IC50) greater than 10000 nM.
Regarding `CN(CCCNC(=O)Nc1ccccc1)C[C@H]1C[C@@H](c2ccc3c(N)ncnn23)[C@H](O)[C@@H]1O`, it took 369 nM to reach half-maximal inhibition in data set [16] (IC50).
For `CC(C)NC[C@H]1C[C@@H](c2ccc3c(N)ncnn23)[C@H](O)[C@@H]1O`, the Tmax in data set [1] is 5 min; in data set [2] it was 120 min. For the same molecule, the results for the peak concentration (Cmax) in [3] and in data set [4] were 40800 ng/mL and 561 ng/mL, respectively. For the same molecule, the exposure AUC(0-t) at 10 h is 14200 ng·h/mL in [5] and 1200 ng·h/mL in [6]. Moreover, the AUC(0-inf) in [7] is 14200 ng·h/mL; in data set [8], 1300 ng·h/mL. The half-life amounted to 115 min in data set [9] and 44.9 min in [10]. The values for the k el at 10 h in data set [11] and in [12] were 0.0001 s⁻¹ and 0.000257 s⁻¹, respectively. Further, the volume of distribution (Vd) in data set [13] was 3.88 L/kg. Also, the clearance in data set [14] is 23.3 mL/min/kg. Further, the bioavailability in [15] came out at 9%.
Take `CC(C)N(C[C@H]1C[C@@H](c2ccc3c(N)ncnn23)[C@H](O)[C@@H]1O)[C@H]1C[C@H](CCc2nc3cc(C(C)(C)C)ccc3[nH]2)C1` (racemic): the IC50 in data set [16] is 13.8 nM.
The molecule `CN(CCCNC(=O)Nc1ccc(C(C)(C)C)cc1)C[C@H]1C[C@@H](c2cnn3c(N)ccnc23)[C@H](O)[C@@H]1O` displayed a 50% inhibitory concentration (IC50) in [16] greater than 10000 nM.
Still for that read-out and setting: then `CC(C)N(C[C@@H]1C[C@H](c2ccc3c(N)ncnn23)[C@@H](O)[C@H]1O)[C@H]1C[C@@H](CCc2nc3cc(C(C)(C)C)ccc3[nH]2)C1`, with 80 nM.
`CN(CCCNC(=O)Nc1ccccc1)C[C@H]1C[C@@H](c2ccc3c(N)ncnn23)[C@@H](O)[C@@H]1O`: the deltaG in [17] amounted to 3.82 kcal/mol.
In the case of `CN(CCCNC(=O)Nc1ccccc1)C[C@H]1C[C@@](O)(c2ccc3c(N)ncnn23)[C@H](O)[C@@H]1O`, in data set [17], the deltaG stood at 3.35 kcal/mol.
For the molecule `CN(CCCNC(=O)Nc1ccc(C(C)(C)C)cc1)C[C@H]1C[C@@H](c2ccc3c(N)ncnn23)[C@H](O)[C@@H]1O` (stereo in doubt; (-)-25), the concentration for half-maximal inhibition (IC50) in [16] is 19 nM. For the same molecule, the Tmax in data set [1] and in data set [2] was 5 min each time. Besides, the highest concentration (Cmax) in [3] was 8320 ng/mL; in data set [4] it was 36.4 ng/mL. In addition, the results for the area under the curve AUC(0-t) at 10 h in [5] and in data set [6] were 3020 ng·h/mL and 8.07 ng·h/mL, respectively. For the same molecule, the values for the total exposure AUC(0-inf) in data set [7] and in [8] were 3080 ng·h/mL and 8.53 ng·h/mL, respectively. Besides, the half-life in [9] is 118 min; in data set [10] it was 6.78 min. Moreover, the figures for the k el at 10 h in data set [11] and in data set [12] were 9.82e-05 s⁻¹ and 0.0017 s⁻¹, respectively. In data set [13], this molecule had a distribution volume (Vd) of 18.4 L/kg. The molecule also returned a clearance in data set [14] of 108 mL/min/kg. Further, the bioavailability in [15] was determined as 0.3%.

In general, Tmax refers to the time at which the peak concentration occurs. The Cmax is the highest concentration seen after dosing. As usually defined, the AUC(0-t) is exposure summed from dosing to a finite time, without extrapolation to infinity. The low end stands for low exposure, the high end for high exposure. A word on the AUC(0-inf): it is the area under the concentration-time curve extrapolated to infinity. The low end stands for less exposure, the high end for more exposure. A word on the half-life: it is the time in which the quantity being followed falls by half. Usually Vd stands for a proportionality between amount in the body and measured concentration, not a real space. The clearance is the volume of plasma or blood freed of the substance per unit of time. A lower clearance goes with a low capacity for elimination. The term bioavailability denotes dose-corrected exposure relative to a reference, in per cent. Higher therefore signals much systemic uptake. The term IC50 denotes the concentration that inhibits the measured activity by half. A lower IC50 goes with greater potency.

Values taken from ChEMBL document CHEMBL5154806, “Synthesis and Profiling of Highly Selective Inhibitors of Methyltransferase DOT1L Based on Carbocyclic C-Nucleosides” (J Med Chem, 2022).
